Test: xn = mol fraction of the nth substance listed

CC(C)(C)O + CCCCCC
303.2 K, 101.33 kPa
Details | viscosity [mPa·s]
x2 = 0.05 | 2.298
x2 = 0.1 | 1.677
x2 = 0.15 | 1.306
x2 = 0.2 | 1.052
x2 = 0.3 | 0.749
x2 = 0.4 | 0.568
x2 = 0.5 | 0.465
x2 = 0.6 | 0.41
x2 = 0.7 | 0.361
x2 = 0.8 | 0.319
x2 = 0.85 | 0.302
x2 = 0.9 | 0.289
x2 = 0.95 | 0.281

CCCCOC(=O)c1ccccc1 + CCCCCC
101 kPa
Details | viscosity [mPa·s]
298.15 K, x2 = 0.0788 | 2.272
298.15 K, x2 = 0.1269 | 2.042
298.15 K, x2 = 0.1801 | 1.81
298.15 K, x2 = 0.2539 | 1.536
298.15 K, x2 = 0.302 | 1.377
298.15 K, x2 = 0.3485 | 1.244
298.15 K, x2 = 0.4084 | 1.088
298.15 K, x2 = 0.4955 | 0.896
298.15 K, x2 = 0.5498 | 0.796
298.15 K, x2 = 0.6402 | 0.654
298.15 K, x2 = 0.6861 | 0.594
298.15 K, x2 = 0.7746 | 0.495
298.15 K, x2 = 0.8136 | 0.458
298.15 K, x2 = 0.8494 | 0.427
298.15 K, x2 = 0.8868 | 0.399
298.15 K, x2 = 0.9265 | 0.37
298.15 K, x2 = 0.961 | 0.348
308.15 K, x2 = 0.0668 | 1.923
308.15 K, x2 = 0.1277 | 1.7
308.15 K, x2 = 0.1875 | 1.5
308.15 K, x2 = 0.2458 | 1.331
308.15 K, x2 = 0.2926 | 1.211
308.15 K, x2 = 0.3554 | 1.063
308.15 K, x2 = 0.4013 | 0.966
308.15 K, x2 = 0.4549 | 0.863
308.15 K, x2 = 0.5013 | 0.785
308.15 K, x2 = 0.5515 | 0.707
308.15 K, x2 = 0.5967 | 0.644
308.15 K, x2 = 0.6407 | 0.59
308.15 K, x2 = 0.6896 | 0.536
308.15 K, x2 = 0.728 | 0.497
308.15 K, x2 = 0.7727 | 0.457
308.15 K, x2 = 0.8106 | 0.427
308.15 K, x2 = 0.8512 | 0.396
308.15 K, x2 = 0.8888 | 0.37
308.15 K, x2 = 0.9482 | 0.337
318.15 K, x2 = 0.0337 | 1.707
318.15 K, x2 = 0.1077 | 1.48
318.15 K, x2 = 0.1661 | 1.326
318.15 K, x2 = 0.231 | 1.166
318.15 K, x2 = 0.2845 | 1.05
318.15 K, x2 = 0.3438 | 0.934
318.15 K, x2 = 0.3951 | 0.846
318.15 K, x2 = 0.4512 | 0.757
318.15 K, x2 = 0.4998 | 0.691
318.15 K, x2 = 0.5513 | 0.624
318.15 K, x2 = 0.5518 | 0.625
318.15 K, x2 = 0.646 | 0.523
318.15 K, x2 = 0.6884 | 0.486
318.15 K, x2 = 0.7317 | 0.447
318.15 K, x2 = 0.7749 | 0.412
318.15 K, x2 = 0.8206 | 0.383
318.15 K, x2 = 0.8608 | 0.36
318.15 K, x2 = 0.9115 | 0.327
318.15 K, x2 = 0.9342 | 0.317

CCNCC + CCCCCC
viscosity [mPa·s], 101 kPa
Details | x2 = 0.0897 | x2 = 0.1836 | x2 = 0.2802 | x2 = 0.3738 | x2 = 0.474 | x2 = 0.5744 | x2 = 0.6849 | x2 = 0.7818 | x2 = 0.8954
298.15 K | 0.284 | 0.281 | 0.28 | 0.278 | 0.278 | 0.279 | 0.281 | 0.283 | 0.287
313.15 K | 0.254 | 0.251 | 0.25 | 0.249 | 0.25 | 0.25 | 0.251 | 0.254 | 0.257

CCOC(=O)CCCBr + CCCCCC
303.15 K, 101 kPa
Details | viscosity [mPa·s]
x1 = 0.2012 | 0.4062
x1 = 0.3949 | 0.5871
x1 = 0.4988 | 0.7248
x1 = 0.6008 | 0.8853
x1 = 0.7973 | 1.274

CCCC(=O)OC + CCCCCCC
Details | viscosity [mPa·s]
293.15 K, 101.33 kPa, x1 = 0.08428 | 0.408
293.15 K, 101.33 kPa, x1 = 0.1292 | 0.409
293.15 K, 101.33 kPa, x1 = 0.1965 | 0.413
293.15 K, 101.33 kPa, x1 = 0.2883 | 0.419
293.15 K, 101.33 kPa, x1 = 0.3831 | 0.429
293.15 K, 101.33 kPa, x1 = 0.4997 | 0.445
293.15 K, 101.33 kPa, x1 = 0.5976 | 0.462
293.15 K, 101.33 kPa, x1 = 0.6939 | 0.483
293.15 K, 101.33 kPa, x1 = 0.7977 | 0.51
293.15 K, 101.33 kPa, x1 = 0.905 | 0.542
293.15 K, 101.33 kPa, x1 = 0.9304 | 0.552
303.15 K, 101.33 kPa, x1 = 0.05501 | 0.368
303.15 K, 101.33 kPa, x1 = 0.1135 | 0.369
303.15 K, 101.33 kPa, x1 = 0.1897 | 0.372
303.15 K, 101.33 kPa, x1 = 0.2828 | 0.377
303.15 K, 101.33 kPa, x1 = 0.4056 | 0.388
303.15 K, 101.33 kPa, x1 = 0.5087 | 0.4
303.15 K, 101.33 kPa, x1 = 0.5969 | 0.413
303.15 K, 101.33 kPa, x1 = 0.6951 | 0.431
303.15 K, 101.33 kPa, x1 = 0.803 | 0.454
303.15 K, 101.33 kPa, x1 = 0.9043 | 0.481
303.15 K, 101.33 kPa, x1 = 0.9349 | 0.49
308.15 K, 101.3 kPa, x1 = 0.0525 | 0.357
308.15 K, 101.3 kPa, x1 = 0.156 | 0.366
308.15 K, 101.3 kPa, x1 = 0.1959 | 0.369
308.15 K, 101.3 kPa, x1 = 0.2969 | 0.379
308.15 K, 101.3 kPa, x1 = 0.4989 | 0.406
308.15 K, 101.3 kPa, x1 = 0.5971 | 0.421
308.15 K, 101.3 kPa, x1 = 0.7995 | 0.459
308.15 K, 101.3 kPa, x1 = 0.8524 | 0.47
308.15 K, 101.3 kPa, x1 = 0.9236 | 0.487
308.15 K, 101.3 kPa, x1 = 0.9531 | 0.494
308.15 K, 101.3 kPa, x2 = 0.0175 | 0.501
313.15 K, 101.33 kPa, x1 = 0.06751 | 0.334
313.15 K, 101.33 kPa, x1 = 0.1218 | 0.335
313.15 K, 101.33 kPa, x1 = 0.1984 | 0.338
313.15 K, 101.33 kPa, x1 = 0.2903 | 0.342
313.15 K, 101.33 kPa, x1 = 0.4044 | 0.351
313.15 K, 101.33 kPa, x1 = 0.5173 | 0.363
313.15 K, 101.33 kPa, x1 = 0.5954 | 0.373
313.15 K, 101.33 kPa, x1 = 0.6931 | 0.388
313.15 K, 101.33 kPa, x1 = 0.8053 | 0.409
313.15 K, 101.33 kPa, x1 = 0.9053 | 0.432
313.15 K, 101.33 kPa, x1 = 0.9355 | 0.44
318.15 K, 101.3 kPa, x1 = 0.0525 | 0.326
318.15 K, 101.3 kPa, x1 = 0.156 | 0.337
318.15 K, 101.3 kPa, x1 = 0.1959 | 0.341
318.15 K, 101.3 kPa, x1 = 0.2969 | 0.352
318.15 K, 101.3 kPa, x1 = 0.4989 | 0.379
318.15 K, 101.3 kPa, x1 = 0.5971 | 0.397
318.15 K, 101.3 kPa, x1 = 0.7995 | 0.427
318.15 K, 101.3 kPa, x1 = 0.8524 | 0.437
318.15 K, 101.3 kPa, x1 = 0.9236 | 0.451
318.15 K, 101.3 kPa, x1 = 0.9531 | 0.458
318.15 K, 101.3 kPa, x2 = 0.0175 | 0.465

CCCCOC(=O)c1ccccc1 + CCCCCCC
viscosity [mPa·s], 101 kPa
Details | x1 = 0.0994 | x1 = 0.1959 | x1 = 0.2964 | x1 = 0.3986 | x1 = 0.4963 | x1 = 0.5965 | x1 = 0.6954 | x1 = 0.7986 | x1 = 0.8973
298.15 K | 0.457 | 0.536 | 0.645 | 0.777 | 0.95 | 1.162 | 1.411 | 1.731 | 2.122
308.15 K | 0.41 | 0.476 | 0.571 | 0.686 | 0.811 | 0.978 | 1.176 | 1.413 | 1.727
318.15 K | 0.368 | 0.426 | 0.501 | 0.598 | 0.697 | 0.835 | 0.991 | 1.192 | 1.426
